Laboratory results published in publication PMC12150604, “Exploring structure–activity relationships of pyrrolyl diketo acid derivatives as non-nucleoside inhibitors of terminal deoxynucleotidyl transferase enzyme” (Journal of Enzyme Inhibition and Medicinal Chemistry, 2025).
Several values for one entry are separate records, joined by “and”; a condition that tells them apart may be missing. Identical values can stand only once. Like-named read-outs stand apart in the source and are kept apart here.

Target: T1, human TdT (Homo sapiens, UniProt P04053)
T1 construct: purchased Trevigen (Gaithersburg, MD)
Experiment: Terminal transferase assay, TdT
Type: biochemical
Settings: for IC50: human TdT
Protocol: Recombinant full-length human DNA polymerase λ and β were generated and purified as described. After purification, the protein was >90% homogeneous, as judged by sodium dodecyl sulphate (SDS)−polyacrylamide gel electrophoresis (PAGE) and Coomassie staining. TdT was from Trevigen (Gaithersburg, MD).
Terminal Transferase Assay. DNA polymerase λ and TdT terminal transferase activities were assayed in a final volume of 25 μL containing 50 mM Tris-HCl (pH 7.0), 0.25 mg/mL BSA, 1 mM DTT, 0.2 μM ss 30mer (AAC)10 DNA oligonucleotide, 25 μM [3H]dNTPs (10 Ci/mmol) and 0.5 mM MnCl2 or 5 mM MgCl2 used as cofactors. Terminal transferase activity was monitored in the presence of 10% DMSO or in the presence of increasing amounts of inhibitors dissolved in DMSO. All reactions were incubated for 10 min at 37 °C and the DNA precipitated with 10% trichloroacetic acid. Insoluble radioactive material was determined by scintillation counting using Trilux beta-counter (PerkinElmer) as described.
Dose − response curves were generated by computer fitting of the data to the equation E(%) = Emax/(1 + I/ID50) where E(%) is the fraction of enzyme’s activity measured in the presence of the inhibitor, Emax is the activity in the absence of the inhibitor, I is the inhibitor concentration, and ID50 is the inhibitor concentration at which E(%) = 0.5 Emax. ID50 values were generated using GraphPad Prism 6.

[1] = Mn2+ as cofactor, read-out: ID50 (µM) Mn2+
[2] = Mg2+ as cofactor, read-out: ID50 (µM) Mg2+

T1 sequence (P04053 whole entry): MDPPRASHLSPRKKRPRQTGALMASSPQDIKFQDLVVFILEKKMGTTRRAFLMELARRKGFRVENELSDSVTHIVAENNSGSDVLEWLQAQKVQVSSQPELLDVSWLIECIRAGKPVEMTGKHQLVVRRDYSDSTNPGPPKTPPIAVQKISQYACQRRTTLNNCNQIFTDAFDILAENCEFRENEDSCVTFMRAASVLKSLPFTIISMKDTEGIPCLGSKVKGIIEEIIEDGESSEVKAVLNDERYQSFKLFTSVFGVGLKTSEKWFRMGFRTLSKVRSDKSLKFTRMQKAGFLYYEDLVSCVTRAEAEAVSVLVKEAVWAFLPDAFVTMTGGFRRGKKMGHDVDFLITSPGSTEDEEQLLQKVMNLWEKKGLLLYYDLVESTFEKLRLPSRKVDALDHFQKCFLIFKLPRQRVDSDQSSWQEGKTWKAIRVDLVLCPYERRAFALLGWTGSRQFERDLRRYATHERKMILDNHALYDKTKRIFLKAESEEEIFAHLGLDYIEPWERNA

Row | IC50 [1] [µM] | IC50 [2] | Compound | further results
1 | > 50 | – | CCOC(=O)/C(O)=C/C(=O)/C=C/c1cccn1Cc1ccc(F)cc1 [Compound 5a, Ethyl (2Z,5E)-6-(1-(4-fluorobenzyl)-1H-pyrrol-2-yl)-2-hydroxy-4-oxohexa-2,5-dienoate] | –
2 | > 50 | – | CCOC(=O)/C(O)=C/C(=O)/C=C/c1cc(-c2ccccc2)cn1Cc1ccc(F)cc1 [Compound 5b, Ethyl (2Z,5E)-6-(1-(4-fluorobenzyl)-4-phenyl-1H-pyrrol-2-yl)-2-hydroxy-4-oxohexa-2,5-dienoate] | –
3 | > 50 | – | CCOC(=O)/C(O)=C/C(=O)/C=C/c1cc(C(=O)c2ccc3c(c2)OCCO3)cn1Cc1ccc(F)cc1 [Compound 5c] | –
4 | > 50 | 5.83 ± 1.76 µM | CCOC(=O)/C(O)=C/C(=O)/C=C/c1cc(C(=O)c2ccc(OCc3ccc4ccccc4c3)cc2)cn1Cc1ccc(F)cc1 [Compound 5d] | –
5 | > 50 | 6.54 ± 0.78 µM | CCOC(=O)/C(O)=C\C(=O)/C=C/c1cc(C(=O)c2ccc([N+](=O)[O-])cc2)cn1Cc1ccc(F)cc1 [Compound 5f] | –
6 | > 50 | 0.91 ± 0.36 µM | CCOC(=O)/C(O)=C/C(=O)/C=C/c1cc(C(=O)c2ccc(NC(=O)c3ccc(OC)c(Br)c3)cc2)cn1Cc1ccc(F)cc1 [Compound 5g] | –
7 | > 50 | 3.68 ± 1 µM | CCOC(=O)/C(O)=C/C(=O)/C=C/c1cc(C(=O)c2ccccc2)cn1Cc1cccc2ccccc12 [Compound 5j] | –
8 | 1.28 ± 0.27 | 10.6 ± 3.6 µM | CCOC(=O)/C(O)=C/C(=O)/C=C/c1cc(C(=O)c2cc(OC)c(OC)c(OC)c2)c[nH]1 [Compound 5k] | times lower potency than acid counterpart 6k (TdT, Mn2+, ratio of ID50): 3 times
9 | > 50 | 37.8 µM and 35.8 µM | CCOC(=O)/C(O)=C/C(=O)/C=C/c1cc(C(=O)c2ccccc2)c[nH]1 [Compound 5l, (2Z,5E)-ethyl 6-(4-benzoyl-1H-pyrrol-2-yl)-2-hydroxy-4-oxohexa-2,5-dienoate] | –
10 | 8.75 ± 0.35 | 3.87 ± 0.55 µM | CCOC(=O)/C(O)=C/C(=O)/C=C/c1cc(C(=O)c2ccccc2)cn1S(=O)(=O)c1ccc(F)cc1 [Compound 5m] | –
11 | 1.63 ± 0.35 | > 50 µM | O=C(/C=C(\O)C(=O)O)/C=C/c1cccn1Cc1ccc(F)cc1 [Compound 6a, (2Z,5E)-6-(1-(4-fluorobenzyl)-1H-pyrrol-2-yl)-2-hydroxy-4-oxohexa-2,5-dienoic acid] | times higher activity than 4-phenyl counterpart 6b (TdT, Mn2+, ratio of ID50): 4 times; times more active than the hit compound 2 (TdT, Mn2+, ratio of ID50): about 6 times
12 | 6.9 ± 2.5 | > 50 µM | O=C(/C=C(\O)C(=O)O)/C=C/c1cc(-c2ccccc2)cn1Cc1ccc(F)cc1 [Compound 6b, (2Z,5E)-6-(1-(4-fluorobenzyl)-4-phenyl-1H-pyrrol-2-yl)-2-hydroxy-4-oxohexa-2,5-dienoic acid] | –
13 | 4.07 ± 0.81 | – | O=C(/C=C(\O)C(=O)O)/C=C/c1cc(C(=O)c2ccc3c(c2)OCCO3)cn1Cc1ccc(F)cc1 [Compound 6c] | –
14 | > 50 | 12.8 ± 4.2 µM | O=C(/C=C(\O)C(=O)O)/C=C/c1cc(C(=O)c2ccc(OCc3ccc4ccccc4c3)cc2)cn1Cc1ccc(F)cc1 [Compound 6d] | –
15 | 7.71 ± 2.4 | 0.64 ± 0.25 µM | O=C(/C=C/c1cc(C(=O)c2ccc([N+](=O)[O-])cc2)cn1Cc1ccc(F)cc1)/C=C(/O)C(=O)O [Compound 6f] | –
16 | > 50 | 0.41 ± 0.03 µM | COc1ccc(C(=O)Nc2ccc(C(=O)c3cc(/C=C/C(=O)/C=C(\O)C(=O)O)n(Cc4ccc(F)cc4)c3)cc2)cc1Br [Compound 6g] | –
17 | > 50 | 2.11 ± 0.5 µM | O=C(/C=C(\O)C(=O)O)/C=C/c1cc(C(=O)c2ccccc2)cn1Cc1cccc2ccccc12 [Compound 6j] | –
18 | 0.38 ± 0.06 | 0.86 ± 0.14 µM | COc1cc(C(=O)c2c[nH]c(/C=C/C(=O)/C=C(\O)C(=O)O)c2)cc(OC)c1OC [Compound 6k] | –

Row | IC50 [1] [µM] | IC50 [2] | Compound | further results
19 | 0.3 ± 0.13 | 0.22 ± 0.01 µM | O=C(/C=C(\O)C(=O)O)/C=C/c1cc(C(=O)c2ccccc2)c[nH]1 [Compound 6l, (2Z,5E)-6-(4-benzoyl-1H-pyrrol-2-yl)-2-hydroxy-4-oxohexa-2,5-dienoic acid] | –
20 | 0.33 ± 0.05 | 0.34 ± 0.01 µM | O=C(/C=C(\O)C(=O)O)/C=C/c1cc(C(=O)c2ccccc2)cn1S(=O)(=O)c1ccc(F)cc1 [Compound 6m] | –
21 | > 50 | – | CCOC(=O)/C(O)=C/C(=O)/C=C/c1ccn(Cc2ccc(F)cc2)c1 [Compound 7a, Ethyl (2Z,5E)-6-(1-(4-fluorobenzyl)-1H-pyrrol-3-yl)-2-hydroxy-4-oxohexa-2,5-dienoate] | –
22 | 2.72 ± 0.73 | – | CCOC(=O)/C(O)=C/C(=O)/C=C/c1cn(Cc2ccc(F)cc2)cc1-c1ccccc1 [Compound 7b, Ethyl (2Z,5E)-6-(1-(4-fluorobenzyl)-4-phenyl-1H-pyrrol-3-yl)-2-hydroxy-4-oxohexa-2,5-dienoate] | –
23 | > 50 | 10.5 ± 3.6 µM | CCOC(=O)/C(O)=C/C(=O)/C=C/c1c[nH]cc1-c1ccccc1 [Compound 7c] | –
24 | > 50 | 21.3 ± 5.05 µM | CCOC(=O)/C(O)=C/C(=O)/C=C/c1c[nH]cc1-c1cc(OC)c(OC)c(OC)c1 [Compound 7d] | –
25 | 6.31 ± 2.8 | – | O=C(/C=C(\O)C(=O)O)/C=C/c1ccn(Cc2ccc(F)cc2)c1 [Compound 8a, (2Z,5E)-6-(1-(4-fluorobenzyl)-1H-pyrrol-3-yl)-2-hydroxy-4-oxohexa-2,5-dienoic acid] | –
26 | 0.66 ± 0.12 | – | O=C(/C=C(\O)C(=O)O)/C=C/c1cn(Cc2ccc(F)cc2)cc1-c1ccccc1 [Compound 8b, (2Z,5E)-6-(1-(4-fluorobenzyl)-4-phenyl-1H-pyrrol-3-yl)-2-hydroxy-4-oxohexa-2,5-dienoic acid] | –
27 | 0.19 ± 0.08 | – | O=C(/C=C(\O)C(=O)O)/C=C/c1c[nH]cc1-c1ccccc1 [Compound 8c] | improvement in inhibitory activity in respect to hit compound 4 (TdT): higher than 3 times
28 | 0.23 ± 0.03 | 0.24 ± 0.03 µM | COc1cc(-c2c[nH]cc2/C=C/C(=O)/C=C(\O)C(=O)O)cc(OC)c1OC [Compound 8d] | –
29 | > 50 | – | CCOC(=O)/C(O)=C/C(=O)c1cccn1Cc1ccc(F)cc1 [Compound 9a, Ethyl (Z)-4-(1-(4-fluorobenzyl)-1H-pyrrol-2-yl)-2-hydroxy-4-oxobut-2-enoate] | –
30 | > 50 | – | CCOC(=O)/C(O)=C/C(=O)c1cc(-c2ccccc2)cn1Cc1ccc(F)cc1 [Compound 9b, Ethyl (Z)-4-(1-(4-fluorobenzyl)-4-phenyl-1H-pyrrol-2-yl)-2-hydroxy-4-oxobut-2-enoate] | –
31 | 1.16 ± 0.35 | – | O=C(O)/C(O)=C/C(=O)c1cccn1Cc1ccc(F)cc1 [Compound 10a, (Z)-4-(1-(4-fluorobenzyl)-1H-pyrrol-2-yl)-2-hydroxy-4-oxobut-2-enoic acid] | –
32 | 3.25 ± 0.66 | – | O=C(O)/C(O)=C/C(=O)c1cc(-c2ccccc2)cn1Cc1ccc(F)cc1 [Compound 10b, (Z)-4-(1-(4-fluorobenzyl)-4-phenyl-1H-pyrrol-2-yl)-2-hydroxy-4-oxobut-2-enoic acid] | –
33 | > 50 | – | CCOC(=O)/C(O)=C/C(=O)c1ccn(Cc2ccc(F)cc2)c1 [Compound 11a, Ethyl (Z)-4-(1-(4-fluorobenzyl)-1H-pyrrol-3-yl)-2-hydroxy-4-oxobut-2-enoate] | –
34 | 2.8 ± 0.7 | – | O=C(O)/C(O)=C/C(=O)c1ccn(Cc2ccc(F)cc2)c1 [Compound 12a, (Z)-4-(1-(4-fluorobenzyl)-1H-pyrrol-3-yl)-2-hydroxy-4-oxobut-2-enoic acid] | –
35 | >50 | – | (E)-6-(1-(4-fluorobenzyl)-4-(4-phenoxybenzoyl)-1H-pyrrol-2-yl)-2,4-dioxohex-5-enoic acid [Compound 6e] | –
